According to article PMC7450057, “Enhancing intracellular accumulation and target engagement of PROTACs with reversible covalent chemistry” (Nature Communications, 2020):
Several values for one entry are separate records, joined by “and”; a condition that tells them apart may be missing. Equal values may be shown once.

Key:
BTK [1] = biological target: T1, BTK (Homo sapiens, UniProt Q06187); assay: BTK degradation in MOLM-14 cells (western blot); type: cell-based; set-up: endogenous in cells; host or cells: MOLM-14; conditions: MOLM-14 cells; for Degradation at 200 nM (percentage of BTK degradation): 24 h incubation
T1 sequence (Q06187 whole entry): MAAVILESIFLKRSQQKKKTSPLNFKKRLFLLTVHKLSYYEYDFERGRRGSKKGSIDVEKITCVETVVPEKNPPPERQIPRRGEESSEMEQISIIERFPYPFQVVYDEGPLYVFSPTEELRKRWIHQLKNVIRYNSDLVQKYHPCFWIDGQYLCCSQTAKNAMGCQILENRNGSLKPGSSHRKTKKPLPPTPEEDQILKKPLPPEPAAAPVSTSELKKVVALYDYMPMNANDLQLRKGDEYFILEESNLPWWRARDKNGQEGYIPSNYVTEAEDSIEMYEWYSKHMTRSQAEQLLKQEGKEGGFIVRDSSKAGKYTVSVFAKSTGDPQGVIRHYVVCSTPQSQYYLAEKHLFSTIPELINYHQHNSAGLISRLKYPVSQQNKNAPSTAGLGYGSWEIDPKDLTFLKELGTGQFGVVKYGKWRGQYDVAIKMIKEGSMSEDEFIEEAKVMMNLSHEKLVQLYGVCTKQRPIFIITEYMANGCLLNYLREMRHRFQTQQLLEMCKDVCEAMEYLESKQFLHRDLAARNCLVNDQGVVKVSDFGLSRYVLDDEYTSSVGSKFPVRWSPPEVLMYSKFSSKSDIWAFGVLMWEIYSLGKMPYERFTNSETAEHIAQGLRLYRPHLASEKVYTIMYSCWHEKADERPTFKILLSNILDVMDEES

MOLM-14 cells = assay: AlamarBlue cell viability assay, MOLM-14; conditions: for Cell viability, MOML-14: Supplementary Figure 7, replicates
Description: The IC50 was calculated using GraphPad Prism software with a four-parameter dose-response curve fit.

NanoLuc-CRBN fusion = biological target: T2, NanoLuc-CRBN fusion (Homo sapiens, UniProt Q96SW2); assay: NanoBRET CRBN in-cell target engagement assay; type: cell-based; conditions: for NanoBRET(%): Figure 3h, replicates; for IC50: HEK-293 cells, CRBN tracer 0.5 µM, triplicates, read-out: CRBN target engagement IC50,TE
T2 construct: host or cells: HEK 293T/17
T2 sequence (Q96SW2 whole entry, the tested form may be a part): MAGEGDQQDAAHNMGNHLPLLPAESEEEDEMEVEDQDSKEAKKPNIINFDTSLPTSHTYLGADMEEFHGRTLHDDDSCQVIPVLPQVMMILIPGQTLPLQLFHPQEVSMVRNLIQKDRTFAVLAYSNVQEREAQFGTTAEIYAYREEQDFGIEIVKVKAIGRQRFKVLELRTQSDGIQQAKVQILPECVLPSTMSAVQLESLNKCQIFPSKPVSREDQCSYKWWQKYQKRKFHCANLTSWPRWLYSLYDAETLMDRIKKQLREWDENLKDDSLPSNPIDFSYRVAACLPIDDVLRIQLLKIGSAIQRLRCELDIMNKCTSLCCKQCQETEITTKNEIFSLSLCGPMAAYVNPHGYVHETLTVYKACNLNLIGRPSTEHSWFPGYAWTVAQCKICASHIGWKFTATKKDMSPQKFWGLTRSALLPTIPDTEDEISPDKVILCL
T2 sequence (Q16531 whole entry partner, the tested form may be a part): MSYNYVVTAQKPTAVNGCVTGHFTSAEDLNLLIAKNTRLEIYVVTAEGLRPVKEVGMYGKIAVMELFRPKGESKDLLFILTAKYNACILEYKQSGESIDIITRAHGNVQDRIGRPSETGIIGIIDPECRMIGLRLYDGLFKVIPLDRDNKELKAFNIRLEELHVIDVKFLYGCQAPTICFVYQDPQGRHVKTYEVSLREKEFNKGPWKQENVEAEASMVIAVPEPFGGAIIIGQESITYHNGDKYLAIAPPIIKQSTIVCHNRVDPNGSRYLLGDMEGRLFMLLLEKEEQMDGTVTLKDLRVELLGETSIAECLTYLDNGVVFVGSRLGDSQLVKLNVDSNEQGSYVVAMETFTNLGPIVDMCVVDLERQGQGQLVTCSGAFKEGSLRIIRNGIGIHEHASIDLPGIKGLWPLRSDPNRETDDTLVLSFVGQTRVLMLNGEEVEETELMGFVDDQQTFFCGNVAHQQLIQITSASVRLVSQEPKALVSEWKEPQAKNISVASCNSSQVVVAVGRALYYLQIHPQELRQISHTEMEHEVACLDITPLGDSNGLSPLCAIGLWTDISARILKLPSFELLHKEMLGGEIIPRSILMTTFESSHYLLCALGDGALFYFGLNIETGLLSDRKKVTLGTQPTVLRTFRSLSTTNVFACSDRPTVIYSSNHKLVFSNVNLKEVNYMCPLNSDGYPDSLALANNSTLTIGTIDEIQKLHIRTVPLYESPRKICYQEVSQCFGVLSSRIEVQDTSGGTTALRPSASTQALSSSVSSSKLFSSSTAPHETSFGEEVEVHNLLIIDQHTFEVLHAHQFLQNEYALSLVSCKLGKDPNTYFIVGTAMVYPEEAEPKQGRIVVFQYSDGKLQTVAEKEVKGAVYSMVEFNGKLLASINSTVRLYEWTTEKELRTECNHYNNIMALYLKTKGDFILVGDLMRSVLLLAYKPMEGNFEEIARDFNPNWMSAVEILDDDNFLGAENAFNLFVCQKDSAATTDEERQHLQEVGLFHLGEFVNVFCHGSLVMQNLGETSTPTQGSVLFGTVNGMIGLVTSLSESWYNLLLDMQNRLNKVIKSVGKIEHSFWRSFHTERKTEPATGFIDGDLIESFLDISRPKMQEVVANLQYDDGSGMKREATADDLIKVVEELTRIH
Description: The target engagement assay for BTK or CRBN was from Promega (BTK kit, Cat. No. N2500; CRBN kit, Cat. No. CS1810C136) and was performed according to the manufacture’s instruction with some modifications. […] After 2 h incubation, the 3X Nano-Glo® Substrate with NanoLuc® extracellular inhibitor were added to cells and developed for 3 min at room temperature. BRET signals were collected using a BioTek SYNERGY H1 microplate reader equipped with a 450/80-nm BP filter for donor emission and a 610-nm LP filter for acceptor emission. BRET Ratio was calculated with the equation: [(Acceptor sample/Donor sample)–(Acceptor no tracer control/Donor no tracer control)] × 1000. The IC50 of the compound against its BTK or CRBN tracer was calculated using GraphPad Prism software.

BTK [2] = biological target: T1, BTK; assay: In vitro BTK kinase assay (PhosphoSens); type: biochemical; set-up: purchased SignalChem B10-10H-10
Description: BTK kinase activity inhibition IC50 was measured by PhosphoSens® Kinase Assay Kit (Assay Quant Technologies Inc., Cat.# CSKS-AQT0101K). […] Active recombinant BTK was purchased from SignalChem (Cat.# B10-10H-10). All the drugs (3 warhead control and 4 PROTACs) were dissolved in DMSO (10 mM). […] To calculate the IC50, subtract the background fluorescence determined with the “no kinase” control for each time point from the total signal to obtain corrected Relative Fluorescence Units (RFU) values. Plot the corrected RFU vs. Time for each inhibitor concentration and determine the initial reaction rates (slope of the linear portion) for each progress curve for each inhibitor concentration. Then plot velocity (RFU corrected/minute) vs [inhibitor] and determine the IC50 using a 4-parameter logistic fit.

| SMILES | Degradation at 200 nM (percentage of BTK degradation) (BTK [1]) [%] | Cell viability, MOML-14 (MOLM-14 cells; drug concentration 1.00E-05 M) | Cell viability, MOML-14 (MOLM-14 cells; drug concentration 1.60E-08 M) | Cell viability, MOML-14 (MOLM-14 cells; drug concentration 2.00E-06 M) | Cell viability, MOML-14 (MOLM-14 cells; drug concentration 3.20E-09 M) | Cell viability, MOML-14 (MOLM-14 cells; drug concentration 4.00E-07 M) | Cell viability, MOML-14 (MOLM-14 cells; drug concentration 6.40E-10 M) | Cell viability, MOML-14 (MOLM-14 cells; drug concentration 8.00E-08 M) | NanoBRET(%) (NanoLuc-CRBN fusion; drug concentration 1.00E-05 M) | NanoBRET(%) (NanoLuc-CRBN fusion; drug concentration 1.60E-08 M) | NanoBRET(%) (NanoLuc-CRBN fusion; drug concentration 2.00E-06 M) | NanoBRET(%) (NanoLuc-CRBN fusion; drug concentration 3.20E-09 M) | NanoBRET(%) (NanoLuc-CRBN fusion; drug concentration 4.00E-07 M) | NanoBRET(%) (NanoLuc-CRBN fusion; drug concentration 8.00E-08 M) | IC50 (NanoLuc-CRBN fusion) [µM] | further results |
| --- | --- | --- | --- | --- | --- | --- | --- | --- | --- | --- | --- | --- | --- | --- | --- | --- |
| CN(CCCNC(=O)COc1cccc2c1C(=O)N(C1CCC(=O)NC1=O)C2=O)C(C)(C)C=C(C#N)C(=O)N1CCC[C@@H](n2nc(-c3ccc(Oc4ccccc4)cc3)c3c(N)ncnc32)C1 (stereo partly shown) [RC-9] | 30 | -0.2322 and -0.06633 and -0.1327 and -0.8823 and -0.4179 | 85.6517 and 91.2637 and 79.403 and 91.5091 and 93.4859 | 9.041 and 7.098 and 11.4959 and 8.756 and 8.279 | 93.4859 and 94.8192 and 76.9154 and 100.657 and 77.1542 | 42.6932 and 44.9353 and 60.7695 and 44.0464 and 46.4279 | 113.612 and 82.5937 and 85.9834 and 109.612 and 104.358 | 79.6219 and 80.8756 and 76.0199 and 82.7728 and 91.7612 |  |  |  |  |  |  |  |  |
| CCCNc1nc(Nc2ccc(C#N)cc2)ncc1C#CCCCNC(=O)[C@H](C)N(C)C(=O)/C=C/CN(C)CCCNC(=O)CCNc1cccc2c1C(=O)N(C1CCC(=O)NC1=O)C2=O (stereo partly shown) [IRC-FLT3] |  |  |  |  |  |  |  |  | 33.2279% and 26.4905% and 27.0048% | 92.7988% and 108.391% and 111.382% | 38.4699% and 38.0091% and 38.2395% | 129.579% and 139.696% and 92.9737% | 76.4349% and 76.1877% and 65.5306% | 100.627% and 103.984% and 84.3671% | 1.5 |  |
| CN(CCCCNc1cccc2c1C(=O)N(C1CCC(=O)NC1=O)C2=O)C(C)(C)C=C(C#N)C(=O)N1CCCC(n2nc(-c3ccc(Oc4ccccc4)cc3)c3c(N)ncnc32)C1 (stereo not shown) [RC-7] | 6 | 14.5806 and 18.8166 and 13.8981 and 12.7996 and 18.6335 | 91.6861 and 127.114 and 140.005 and 143.301 and 145.198 | 29.6105 and 35.3113 and 28.8948 and 32.5316 and 40.9787 | 108.289 and 119.541 and 122.853 and 118.675 and 131.225 | 92.6182 and 112.666 and 109.446 and 93.7916 and 129.078 | 104.877 and 113.673 and 115.995 and 128.978 and 91.4031 | 94.8735 and 136.951 and 131.242 and 108.447 and 144.149 |  |  |  |  |  |  |  |  |
| CN(CCCNc1cccc2c1C(=O)N(C1CCC(=O)NC1=O)C2=O)C(C)(C)C=C(C#N)C(=O)N1CCCC(n2nc(-c3ccc(Oc4ccccc4)cc3)c3c(N)ncnc32)C1 (stereo not shown) [RC-8] | 15 | 17.5563 and 16.7069 and 17.8914 and 20.4239 and 19.1771 | 123.954 and 125.216 and 128.45 and 118.008 and 115.826 | 51.2117 and 59.1288 and 59.5652 and 52.2481 and 61.4899 | 109.039 and 133.593 and 120.962 and 127.936 and 128.38 | 97.748 and 111.696 and 131.871 and 99.439 and 92.5349 | 132.113 and 115.156 and 99.1818 and 117.969 and 130.757 | 116.239 and 126.011 and 117.112 and 106.966 and 122.419 |  |  |  |  |  |  |  |  |
| CN(CCOCCNC(=O)CNc1ccc2c(c1)C(=O)N(C1CCC(=O)NC1=O)C2=O)C(C)(C)C=C(C#N)C(=O)N1CCC[C@@H](n2nc(-c3ccc(Oc4ccccc4)cc3)c3c(N)ncnc32)C1 (stereo partly shown) [RC-10] |  | 6.648 and 2.814 and 5.855 and 1.001 and 2.266 | 84.9481 and 73.56 and 76.0529 and 61.3598 and 63.4939 | 15.1841 and 8.971 and 14.3343 and 7.989 and 11.1237 | 88.1209 and 77.847 and 69.5373 and 71.6336 and 68.102 | 52.6534 and 38.4514 and 40.831 and 37.0727 and 36.6572 | 87.0746 and 98.5269 and 68.2342 and 85.7413 and 74.9197 | 70.5949 and 66.9688 and 60.3777 and 66.9311 and 50.1039 |  |  |  |  |  |  |  | BTK degradation (in words) (BTK [1]; indicated doses, 24 h): cannot induce any BTK degradation |
| CCCNc1nc(Nc2ccc(C#N)cc2)ncc1C#CCCCNC(=O)[C@H](C)N(C)C(=O)CCCN(C)CCCNC(=O)CCNc1cccc2c1C(=O)N(C1CCC(=O)NC1=O)C2=O (stereo partly shown) [RNC-FLT3] |  |  |  |  |  |  |  |  | 48.4243% and 48.1518% and 48.288% | 120.01% and 113.24% and 126.78% | 97.5318% and 86.9073% and 76.2828% | 100.446% and 106.017% | 98.4352% and 83.544% and 119.955% | 117.071% and 115.752% and 114.432% | 10.1 |  |
| CCCNc1nc(Nc2ccc(C#N)cc2)ncc1C#CCCCNC(=O)[C@H](C)N(C)C(=O)/C(C#N)=C/C(C)(C)N(C)CCCNC(=O)CCNc1cccc2c1C(=O)N(C1CCC(=O)NC1=O)C2=O (stereo partly shown) [RC-FLT3] |  |  |  |  |  |  |  |  | 35.9991% and 14.2807% and 25.1399% | 91.6727% and 89.8569% and 90.7648% | 22.2416% and 18.9083% and 40.0723% | 100.385% and 96.7751% and 101.754% | 38.0473% and 34.6413% and 45.5817% | 64.8551% and 66.5991% and 71.8605% | 0.3 |  |
| CN(CCOCCOCCNC(=O)CNc1cccc2c1C(=O)N(C1CCC(=O)NC1=O)C2=O)C(C)(C)C=C(C#N)C(=O)N1CCC[C@@H](n2nc(-c3ccc(Oc4ccccc4)cc3)c3c(N)ncnc32)C1 (stereo partly shown) [RC-4] | 43 | 7.995 and 4.587 and 6.948 and 0.6662 and 4.873 | 106.917 and 98.9797 and 102.749 and 88.7772 and 88.111 | 23.0509 and 25.7918 and 22.8415 and 19.1107 and 18.6919 | 98.1803 and 95.5954 and 92.3367 and 95.7248 and 84.8751 | 68.7719 and 62.8902 and 62.3953 and 62.1669 and 56.6088 | 92.8506 and 90.1858 and 94.6399 and 97.7806 and 77.071 | 89.7861 and 80.8588 and 84.9703 and 89.1389 and 65.2315 |  |  |  |  |  |  |  |  |
| CN(CCOCCOCCOCCNC(=O)CNc1cccc2c1C(=O)N(C1CCC(=O)NC1=O)C2=O)C(C)(C)C=C(C#N)C(=O)N1CCCC(n2nc(-c3ccc(Oc4ccccc4)cc3)c3c(N)ncnc32)C1 (stereo not shown) [RC-5] | 56 | 1.391 and 1.373 and 1.5492 and 0.5927 and 1.848 | 74.2327 and 92.4124 and 92.4946 and 100.939 and 90.3468 | 10.6332 and 11.0087 and 14.6588 and 13.2797 and 19.9049 | 91.6026 and 96.0448 and 87.3775 and 99.3838 and 93.8853 | 64.738 and 68.3352 and 96.2033 and 70.0311 and 76.4802 | 101.496 and 98.8968 and 89.2553 and 98.5858 and 94.7773 | 91.7317 and 86.3095 and 87.3482 and 74.3794 and 93.7562 |  |  |  |  |  |  |  |  |
| CCC(=O)N1CCCC(n2nc(-c3ccc(Oc4ccccc4)cc3)c3c(N)ncnc32)C1 (stereo not shown) [RNC-Ctrl] |  | 9.88 and 4.549 and 8.014 and 2.825 and 3.518 | 95.1882 and 83.3008 and 72.3018 and 73.7944 and 64.519 | 23.8281 and 18.1065 and 24.6633 and 17.9289 and 14.3751 | 99.7903 and 102.278 and 76.2998 and 63.1686 and 63.4529 | 54.0886 and 58.7263 and 56.6474 and 49.4687 and 44.0492 | 93.8377 and 115.463 and 71.822 and 77.5792 and 66.4558 | 94.9216 and 79.4804 and 66.9 and 56.8073 and 62.3334 |  |  |  |  |  |  |  | IC50 (MOLM-14 cells; Homo sapiens, MOLM-14, 72 h, read-out: Cell viability IC50): 0.42 µM; IC50 (BTK [2]): 0.0136 µM; activity at 12.8 pM (BTK [2]; Supplementary Figure 5, drug concentration 12.8 pM, replicates, read-out: Inhibition(%)): 94.1%; activity at 64 pM (BTK [2]; Supplementary Figure 5, drug concentration 64 pM, replicates, read-out: Inhibition(%)): 94%; activity at 0.00032 µM (BTK [2]; Supplementary Figure 5, drug concentration 320 pM, replicates, read-out: Inhibition(%)): 92.7%; activity at 0.0016 µM (BTK [2]; Supplementary Figure 5, drug concentration 1600 pM, replicates, read-out: Inhibition(%)): 83.1%; activity at 0.008 µM (BTK [2]; Supplementary Figure 5, drug concentration 8000 pM, replicates, read-out: Inhibition(%)): 62.4%; activity at 0.04 µM (BTK [2]; Supplementary Figure 5, drug concentration 40000 pM, replicates, read-out: Inhibition(%)): 29.6%; activity at 0.2 µM (BTK [2]; Supplementary Figure 5, drug concentration 200000 pM, replicates, read-out: Inhibition(%)): 9.18%; activity at 1 µM (BTK [2]; Supplementary Figure 5, drug concentration 1000000 pM, replicates, read-out: Inhibition(%)): 3.99%; reduction of BTK inhibition activity compared with IRC-Ctrl (BTK [2]; ratio of IC50 values): 45 folds; activity at 2.56 pM (BTK [2]; read-out: Inhibition(%), Supplementary Figure 5, drug concentration 2.56 pM, replicates): 110% |
